Earlier results as cited in patent publication US7160580B2, “Organic acids incorporated edible antimicrobial films” (The Board of Trustees for the University of Arkansas, priority 2002, dated 2007).
“And” between values parts separate entries of the source, which are not always exact repeats. Equal values may be shown once.

Assays:
[1] = tested on: Listeria monocytogens; conditions: 2% acid rinsed catfish fillets stored at 4° C., up to 5 days
[2] = tested on: Listeria monocytogens; conditions: lean beef tissue treated with 1.7% lactic acid, stored at 5° C. for 7 days
[3] = tested on: E. coli 0157:H7; conditions: lean beef tissue treated with 1.7% lactic acid, stored at 5° C. for 7 days
[4] = tested on: Salmonella montevideo; conditions: citric acid 0.2 and 0.4% in cellulose based edible film; surface or core tissue of tomatoes; assignment of the two values not stated

Structure (SMILES) | log reduction in Listeria monocytogens counts [1] | log reduction Listeria monocytogens [2] [log] | log reduction E. coli 0157:H7 [3] [log] | log reductions of Salmonella montevideo [4]
O=C(O)CC(O)C(=O)O (centres unmarked) [malic acid] | less than one log reduction | – | – | –
Cl [hydrochloric acid] | less than one log reduction | – | – | –
CC(O)C(=O)O (centres unmarked) [lactic acid] | less than one log reduction | 2.03 | 0.91 | –
O=C(O)CC(O)(CC(=O)O)C(=O)O [citric acid] | less than one log reduction | – | – | 2.18 log and 1.92 log
O=C(O)C(O)C(O)C(=O)O (centres unmarked) [tartaric acid] | less than one log reduction | – | – | –
